Results from the NIST ThermoML archive (doi:10.1016/j.jct.2012.01.023).
Numbers after ± are expanded uncertainties.

Key:
[1] = xn = mol fraction of the nth substance listed; details: 298.15 K, Drop volume
[2] = for mass density: 298.1 K, 101.33 kPa, Liquid, Vibrating tube method; for surface tension liquid-gas: 298.15 K, Drop volume

CCOS(=O)(=O)[O-].CCn1cc[n+](C)c1 [1-ethyl-3-methylimidazolium ethyl sulfate] + O
[1]
Details | surface tension liquid-gas [mN/m]
x1 = 0.005 | 67.23 ± 0.33
x1 = 0.0199 | 62.42 ± 0.31
x1 = 0.0402 | 59.68 ± 0.31
x1 = 0.06 | 57.64 ± 0.3
x1 = 0.1006 | 55.64 ± 0.3
x1 = 0.202 | 52.23 ± 0.3
x1 = 0.3017 | 50.45 ± 0.3
x1 = 0.4046 | 49.42 ± 0.31
x1 = 0.5026 | 48.79 ± 0.31
x1 = 0.6066 | 48.3 ± 0.32
x1 = 0.6957 | 47.94 ± 0.33
x1 = 0.7939 | 47.72 ± 0.34
x1 = 0.9041 | 47.39 ± 0.35
x1 = 1 | 47.16 ± 0.36

CCOS(=O)(=O)[O-].CCn1cc[n+](C)c1 [1-ethyl-3-methylimidazolium ethyl sulfate] + CCO
[1]
Details | surface tension liquid-gas [mN/m]
x1 = 0.0988 | 24.18 ± 0.25
x1 = 0.2056 | 26.37 ± 0.25
x1 = 0.3025 | 28.52 ± 0.26
x1 = 0.3989 | 30.68 ± 0.27
x1 = 0.4999 | 32.99 ± 0.28
x1 = 0.5984 | 35.4 ± 0.29
x1 = 0.703 | 38.12 ± 0.31
x1 = 0.8252 | 41.48 ± 0.33
x1 = 0.9048 | 43.81 ± 0.34
x1 = 1 | 47.16 ± 0.36

CCCCCCCCOS(=O)(=O)[O-].CCn1cc[n+](C)c1 [1-ethyl-3-methylimidazolium octyl sulfate] + CCO
[1]
Details | surface tension liquid-gas [mN/m]
x1 = 0.0399 | 22.89 ± 0.25
x1 = 0.0712 | 23.71 ± 0.25
x1 = 0.098 | 24.48 ± 0.25
x1 = 0.1595 | 25.82 ± 0.26
x1 = 0.215 | 26.62 ± 0.27
x1 = 0.2445 | 27.01 ± 0.27
x1 = 0.2985 | 27.64 ± 0.28
x1 = 0.3506 | 28.18 ± 0.28
x1 = 0.4002 | 28.61 ± 0.29
x1 = 0.4582 | 28.92 ± 0.3
x1 = 0.5059 | 29.14 ± 0.31
x1 = 0.6269 | 29.6 ± 0.33
x1 = 0.7387 | 29.96 ± 0.35
x1 = 0.8317 | 30.5 ± 0.36
x1 = 0.9164 | 30.8 ± 0.38
x1 = 0.9432 | 30.79 ± 0.39
x1 = 0.953 | 30.82 ± 0.39
x1 = 1 | 30.91 ± 0.4

CCCCOS(=O)(=O)[O-].CC[n+]1ccn(C)c1 [3-ethyl-1-methylimidazolium butyl sulfate]
[2]
Details | mass density [kg/m3] | surface tension liquid-gas [mN/m]
– | 1175.65 ± 1.5 | 39.64 ± 0.48

CCOS(=O)(=O)[O-].CCn1cc[n+](C)c1 [1-ethyl-3-methylimidazolium ethyl sulfate]
[2]
Details | mass density [kg/m3] | surface tension liquid-gas [mN/m]
– | 1238.3 ± 1.1 | 47.13 ± 0.36

CCCCCCOS(=O)(=O)[O-].CC[n+]1ccn(C)c1 [3-ethyl-1-methyl-1H-imidazolium hexyl sulfate] + O
[1]
Details | surface tension liquid-gas [mN/m]
x1 = 0.0005 | 62.58 ± 0.96
x1 = 0.0008 | 58.45 ± 0.83
x1 = 0.002 | 49.54 ± 0.9
x1 = 0.005 | 42.13 ± 0.56
x1 = 0.0196 | 40.27 ± 0.27
x1 = 0.0396 | 39.55 ± 0.27
x1 = 0.0602 | 38.88 ± 0.27
x1 = 0.0797 | 38.25 ± 0.27
x1 = 0.0997 | 37.79 ± 0.27
x1 = 0.1997 | 36.16 ± 0.28
x1 = 0.3009 | 35.59 ± 0.29
x1 = 0.4034 | 35.25 ± 0.3
x1 = 0.4957 | 35.05 ± 0.32
x1 = 0.5943 | 34.95 ± 0.34
x1 = 0.705 | 34.87 ± 0.36
x1 = 0.7893 | 34.82 ± 0.38
x1 = 0.8997 | 34.77 ± 0.41
x1 = 1 | 34.77 ± 0.43

CCCCCCCCOS(=O)(=O)[O-].CCn1cc[n+](C)c1 [1-ethyl-3-methylimidazolium octyl sulfate]
[2]
Details | mass density [kg/m3] | surface tension liquid-gas [mN/m]
– | 1093.75 ± 1.4 | 31.29 ± 0.4

O [water]
Details | surface tension liquid-gas [mN/m]
[2] | 71.35 ± 0.33

CCCCCCCCOS(=O)(=O)[O-].CCn1cc[n+](C)c1 [1-ethyl-3-methylimidazolium octyl sulfate] + O
[1]
Details | surface tension liquid-gas [mN/m]
x1 = 0.0002 | 56.92 ± 0.85
x1 = 0.0007 | 42.45 ± 0.34
x1 = 0.005 | 37.84 ± 0.28
x1 = 0.011 | 37.19 ± 0.26
x1 = 0.0198 | 36.69 ± 0.26
x1 = 0.0349 | 35.3 ± 0.26
x1 = 0.0506 | 34.96 ± 0.26
x1 = 0.0774 | 33.87 ± 0.26
x1 = 0.0937 | 33.62 ± 0.26
x1 = 0.2846 | 31.01 ± 0.27
x1 = 0.4 | 30.48 ± 0.28
x1 = 0.5127 | 30.72 ± 0.3
x1 = 0.5677 | 30.67 ± 0.31
x1 = 0.6347 | 30.71 ± 0.32
x1 = 0.6934 | 30.74 ± 0.33
x1 = 0.7018 | 30.77 ± 0.34
x1 = 0.7373 | 30.7 ± 0.34
x1 = 0.766 | 30.81 ± 0.35
x1 = 0.8287 | 30.71 ± 0.36
x1 = 0.8904 | 30.79 ± 0.37
x1 = 1 | 30.91 ± 0.4

CCCCOS(=O)(=O)[O-].CC[n+]1ccn(C)c1 [3-ethyl-1-methylimidazolium butyl sulfate] + CCO
[1]
Details | surface tension liquid-gas [mN/m]
x1 = 0.066 | 23.6 ± 0.25
x1 = 0.1347 | 25.01 ± 0.26
x1 = 0.1536 | 25.36 ± 0.26
x1 = 0.2904 | 27.76 ± 0.28
x1 = 0.4691 | 30.63 ± 0.31
x1 = 0.4993 | 31.05 ± 0.32
x1 = 0.6866 | 33.99 ± 0.36
x1 = 0.7916 | 35.75 ± 0.4
x1 = 0.8794 | 37.35 ± 0.43
x1 = 1 | 39.62 ± 0.47

O [water] + CCOS(=O)(=O)[O-].CCn1cc[n+](C)c1
Details | surface tension liquid-gas [mN/m]
[1], x2 = 0 | 71.35 ± 0.33

CCCCCCOS(=O)(=O)[O-].CC[n+]1ccn(C)c1 [3-ethyl-1-methyl-1H-imidazolium hexyl sulfate]
[2]
Details | mass density [kg/m3] | surface tension liquid-gas [mN/m]
– | 1129.6 ± 1.4 | 34.77 ± 0.43

CCCCCCOS(=O)(=O)[O-].CC[n+]1ccn(C)c1 [3-ethyl-1-methyl-1H-imidazolium hexyl sulfate] + CCO
[1]
Details | surface tension liquid-gas [mN/m]
x1 = 0.03 | 22.98 ± 0.25
x1 = 0.0679 | 23.87 ± 0.25
x1 = 0.0977 | 24.48 ± 0.25
x1 = 0.1253 | 25 ± 0.25
x1 = 0.2267 | 26.53 ± 0.27
x1 = 0.3138 | 27.69 ± 0.28
x1 = 0.386 | 28.6 ± 0.29
x1 = 0.4691 | 29.48 ± 0.3
x1 = 0.5946 | 30.86 ± 0.33
x1 = 0.7189 | 32.08 ± 0.36
x1 = 0.7951 | 32.84 ± 0.37
x1 = 0.9409 | 34.31 ± 0.41
x1 = 1 | 34.77 ± 0.43

CCO [ethanol] + CCOS(=O)(=O)[O-].CCn1cc[n+](C)c1
Details | surface tension liquid-gas [mN/m]
[1], x2 = 0 | 22.01 ± 0.24

CCO [ethanol]
Details | surface tension liquid-gas [mN/m]
[2] | 22.01 ± 0.24

CCCCOS(=O)(=O)[O-].CC[n+]1ccn(C)c1 [3-ethyl-1-methylimidazolium butyl sulfate] + O
[1]
Details | surface tension liquid-gas [mN/m]
x1 = 0.0389 | 44.48 ± 0.35
x1 = 0.0403 | 45.93 ± 0.35
x1 = 0.0579 | 40.83 ± 0.28
x1 = 0.0602 | 41.7 ± 0.28
x1 = 0.0758 | 39.85 ± 0.27
x1 = 0.0805 | 39.96 ± 0.27
x1 = 0.0934 | 39.08 ± 0.27
x1 = 0.0987 | 39.17 ± 0.27
x1 = 0.1004 | 39.42 ± 0.27
x1 = 0.101 | 39.84 ± 0.28
x1 = 0.12 | 39.74 ± 0.27
x1 = 0.133 | 40.29 ± 0.28
x1 = 0.1464 | 40.85 ± 0.28
x1 = 0.1716 | 41.83 ± 0.29
x1 = 0.1947 | 41.59 ± 0.29
x1 = 0.2004 | 41.48 ± 0.29
x1 = 0.2585 | 40.83 ± 0.3
x1 = 0.2973 | 40.81 ± 0.3
x1 = 0.3957 | 40.04 ± 0.32
x1 = 0.4017 | 40.31 ± 0.32
x1 = 0.4764 | 39.93 ± 0.34
x1 = 0.4992 | 40.01 ± 0.34
x1 = 0.5868 | 39.89 ± 0.36
x1 = 0.703 | 39.82 ± 0.39
x1 = 0.7997 | 39.77 ± 0.42
x1 = 0.9034 | 39.67 ± 0.45
x1 = 1 | 39.62 ± 0.47
